Test results published in the supplement of paper PMC10307832.

How the values were obtained:
Assay in all cases: relative viability (nuclei count vs DMSO), 5 days (fraction); higher = more cells survive
[1] = compound: Cc1cnc(CNC(=O)c2c(=O)c3ccc(N4CCCN(C)CC4)nc3n3c2sc2ccccc23)cn1 [CX-5461] + Nc1ncn([C@H]2C[C@H](O)[C@@H](CO)O2)c(=O)n1 [Decitabine] (partner 2 µM)
Outline: (§1)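 Cells from lung cancer lines were seeded into 1536-well plates and, one day later, dosed by pin tool. Treatments were either a single drug or a fixed dose of an anchor drug with five library-drug doses (not always all listed) in √10 steps. After 5 days, nuclei were stained in a one-step fixation (final 0.05% Triton X-100, 1% formaldehyde, 1 ug/ml Hoechst) and counted on 4× images, and relative viability is the treated-to-vehicle nuclei ratio, as the median of duplicate plates.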

[2] = compound: O=C(Nc1cc(C(F)(F)F)cc(C(F)(F)F)c1)c1cc(Cl)ccc1O [IMD-0354] + Cc1cc(Nc2cc(N3CCN(C)CC3)nc(Sc3ccc(NC(=O)C4CC4)cc3)n2)n[nH]1 [Tozasertib] (partner 0.1 µM)
Outline: as §1

[3] = compound: Cc1cnc(CNC(=O)c2c(=O)c3ccc(N4CCCN(C)CC4)nc3n3c2sc2ccccc23)cn1 [CX-5461] + C[C@@H](Oc1cc(-c2cnn(C3CCNCC3)c2)cnc1N)c1c(Cl)ccc(F)c1Cl [Crizotinib] (partner 1 µM)
Outline: as §1

[4] = compound: O=C(Nc1cc(C(F)(F)F)cc(C(F)(F)F)c1)c1cc(Cl)ccc1O [IMD-0354] + O=C(CCCCCCC(=O)Nc1ccccc1)NO [Vorinostat] (partner 1 µM)
Outline: as §1

Row | Cell Line | relative viability ([1]; first compound 0.01 µM) | relative viability ([1]; first compound 0.03162 µM) | relative viability ([1]; first compound 0.1 µM) | relative viability ([1]; first compound 0.3162 µM) | relative viability ([1]; first compound 1 µM) | relative viability ([2]; first compound 0.04 µM) | relative viability ([2]; first compound 0.1265 µM) | relative viability ([2]; first compound 0.4 µM) | relative viability ([2]; first compound 1.265 µM) | relative viability ([2]; first compound 4 µM) | relative viability ([3]; first compound 0.01 µM) | relative viability ([3]; first compound 0.03162 µM) | relative viability ([3]; first compound 0.3162 µM) | relative viability ([3]; first compound 1 µM) | relative viability ([4]; first compound 0.04 µM) | relative viability ([4]; first compound 0.1265 µM) | relative viability ([4]; first compound 0.4 µM) | relative viability ([4]; first compound 1.265 µM) | relative viability ([4]; first compound 4 µM) | relative viability ([3]; first compound 0.1 µM)
1 | NCI-H1666 | 0.768 | 0.671 | 0.737 | 0.701 | 0.731 | 0.672 | 0.587 | 0.488 | 0.369 | 0.309 | 1.03 | 0.838 | 1 | 0.618 | 1.03 | 1.01 | 0.805 | 0.908 | 0.832 | –
2 | LC-2-ad | 0.805 | 0.867 | 0.809 | 0.795 | 0.79 | 0.484 | 0.528 | 0.377 | 0.243 | 0.257 | 0.491 | 0.522 | 0.286 | 0.454 | 0.732 | 0.691 | 0.394 | 0.193 | 0.169 | 0.363
3 | SW 1573 | 0.474 | 0.41 | 0.114 | 0.392 | 0.214 | 0.182 | 0.16 | 0.175 | 0.0971 | 0.0737 | 0.806 | 0.817 | 0.633 | 0.657 | 1.08 | 0.676 | 0.429 | 0.158 | 0.0883 | 0.889
4 | ChaGo-K-1 | 0.554 | 0.485 | 0.547 | 0.543 | 0.431 | 0.226 | 0.196 | 0.236 | 0.171 | 0.176 | 1.17 | 1.21 | 0.341 | 0.79 | 0.851 | 0.741 | 0.519 | 0.244 | 0.255 | 1.06
5 | COR-L 105 | 0.668 | 0.612 | 0.609 | 0.512 | 0.436 | 0.379 | 0.311 | 0.394 | 0.341 | 0.207 | 1.12 | 0.992 | 0.745 | 0.325 | 0.863 | 0.771 | 0.672 | 0.679 | 0.378 | 0.861
6 | NCI-H1975 | 0.404 | 0.36 | 0.424 | 0.447 | 0.276 | 0.814 | 0.864 | 0.399 | 0.111 | 0.148 | 1.13 | 0.986 | 1.08 | 0.462 | 0.723 | 0.685 | 0.493 | 0.209 | 0.248 | 0.821
7 | NCI-H1993 | 1.37 | 0.64 | 0.668 | 0.29 | 0.577 | 0.626 | 0.623 | 0.487 | 0.452 | 0.479 | 0.972 | 0.819 | 0.822 | 0.825 | 0.75 | 0.696 | 0.582 | 0.313 | 0.498 | 0.862
8 | RERF-LC-KJ | 0.686 | 0.677 | 0.381 | 0.528 | 0.41 | 0.565 | 0.644 | 0.411 | 0.274 | 0.265 | 0.807 | 0.562 | 0.774 | 0.778 | 0.775 | 0.677 | 0.542 | 0.167 | 0.172 | 0.833
